{"source": "patent EP0545103A1", "about": "“Insecticidal, acaricidal and molluscicidal 1-(substituted) thioalkylpyrroles” (priority 1991, dated 1993)", "key": {"Venturia inaequalis": {"test_system": "Venturia inaequalis", "experiment": "In vivo fungicidal activity, Apple Scab (AS)", "conditions": "rate 400 ppm, host plants sprayed then inoculated, rating, averaged", "method": "(§1) Test compounds are dissolved in acetone and diluted with deionized water containing about 0.05% TWEEN 20®, a polyoxyethylene sorbitan monolaurate surfactant manufactured by Atlas Chemical Industries, to give a concentration of 400 ppm. Subsequent dilutions are made with an 0.05% aqueous solution of TWEEN 20®.\n(§2) Host plants are sprayed with test solution, dried and inoculated with fungi. When disease symptom development is optimal, the plants are rated for disease control according to the rating scale shown below. Each test contains inoculated treated plants, inoculated untreated plants and a reference standard.\n(§3) When more than one test is run, the data are averaged."}, "Plasmopara viticola": {"test_system": "Plasmopara viticola", "experiment": "In vivo fungicidal activity, Grape Downy Mildew (GDM)", "conditions": "rate 400 ppm, rating, averaged", "method": "as §1, §2, §3"}, "[1]": {"test_system": "Puccinia recondita, tritici", "experiment": "In vivo fungicidal activity, Wheat Leaf Rust (WLR)", "conditions": "rate 400 ppm, rating, averaged", "method": "as §1, §2, §3"}, "Cercospora beticola": {"test_system": "Cercospora beticola", "experiment": "In vivo fungicidal activity, Sugarbeet Cercospora (SBC)", "conditions": "rate 400 ppm, rating, averaged", "method": "as §1, §2, §3"}, "[2]": {"test_system": "Erysiphe graminis, tritici", "experiment": "In vivo fungicidal activity, Wheat Powdery Mildew (WPM)", "conditions": "rate 400 ppm, rating, averaged", "method": "as §1, §2, §3"}, "Rhizoctonia solani": {"test_system": "Rhizoctonia solani", "experiment": "In vitro fungicidal activity, mycelial growth inhibition on agar (Rhiz)", "format": "cell-based", "conditions": "48 h, two days", "method": "(§4) Test compounds are dissolved in acetone, diluted with sterile, deionized water and mixed with a partially cooled, autoclaved, chemically defined agar medium. This mixture is poured into several 100mm x 15mm sterile plastic plates and allowed to solidify. The surface of each plate is inoculated with a single disc of mycelium and agar cut with an 8mm diameter cork borer from actively growing cultures of assay fungi on a chemically defined agar medium. The plates are incubated at room temperature. Growth inhibition is determined when the mycelial growth on unamended control media has reached the edge of the petri plates. The time interval varies depending on the growth rate of the fungus; two days for Pythium ultimum (pyth) and Rhizoctonia solani (Rhiz) , five days for Botrytis cinerea (Betry) and 7-10 days for Pseudocercosporella herpotrichoides (Pseudo). Each colony diameter is measured and compared with the untreated control and the percent inhibition is calculated as follows: [formula] Each test includes a solvent blank consisting of the formulation without a test compound in addition to the untreated control.\n(§5) Assay fungi include the plant pathogens, Pythium ultimum (Pyth) and Rhizoctonia solani (Rhiz).\n(§6) When more than one test is run the data are averaged."}, "[3]": {"test_system": "Diabrotic undecimpunctata howardi, 3rd instar southern corn rootworm", "experiment": "Southern corn rootworm soil test", "format": "in vivo", "design": "key: 0: no effect; 10-25% kill; 26-35% kill; 36-45% kill; 46-55% kill; 56-65% kill; 66-75% kill; 76-85% kill; 86-99% kill; 9: 100% kill", "conditions": "50 (ppm as headed), mortality rating after 6 days", "method_in_brief": "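Soil test with ten 3rd instar larvae per jar, mortality read after 6 days and missing larvae counted as dead; scores on a rating scale. Doses were 1.25 and 0.25 mg a.i. per jar, corresponding to roughly 50 and 10 kg/ha, loaded on talc from acetone and mixed into moist soil with millet seed as food.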"}, "Pythium ultimum": {"test_system": "Pythium ultimum", "experiment": "In vitro fungicidal activity, mycelial growth inhibition on agar (Pyth)", "format": "cell-based", "conditions": "Globisporangium ultimum, 48 h, two days", "method": "as §4, §5, §6"}, "[4]": {"test_system": "Spodoptera eridania, 3rd instar larvae, southern armyworm", "experiment": "Southern armyworm 3rd instar test, dipped limabean leaf", "format": "in vivo", "conditions": "1000 ppm", "method_in_brief": "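Ten 3rd instar larvae fed on limabean leaves that had been dipped for 3 s in test solution and dried. Test solutions were diluted in water from a 10,000 ppm stock in 35% acetone/water. Ratings at days 3 and 5 covered death, feeding reduction and abnormal molting.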"}}}
{"smiles": "N#CSCn1c(Br)c(Br)c(C#N)c1Br", "note": "[Example 38, 1-[(cyanothio)methyl]-2,4,5-tribromopyrrole-3-carbonitrile]", "values": [{"measurement": "Disease Control AS", "setting": "Venturia inaequalis", "value": 2.0}, {"measurement": "Disease Control GDM", "setting": "Plasmopara viticola", "value": 3.0}, {"measurement": "Disease Control WLR", "setting": "[1]", "value": 5.0}, {"measurement": "Disease Control SBC", "setting": "Cercospora beticola", "value": "0 (0)"}, {"measurement": "Disease Control WPM", "setting": "[2]", "value": "0 (0)"}, {"measurement": "inhibition at 1 ppm", "setting": "Rhizoctonia solani; rate 1 ppm in agar", "value": 1.5, "unit": "%"}, {"measurement": "inhibition at 10 ppm", "setting": "Rhizoctonia solani; rate 10 ppm in agar", "value": 3.5, "unit": "%"}, {"measurement": "inhibition at 25 ppm", "setting": "Rhizoctonia solani; rate 25 ppm in agar", "value": 5.8, "unit": "%"}, {"measurement": "SOUTHERN CORN ROOTWORM", "setting": "[3]", "value": 0}, {"measurement": "inhibition at 1 ppm", "setting": "Pythium ultimum; rate 1 ppm in agar", "value": 1.5, "unit": "%"}, {"measurement": "inhibition at 10 ppm", "setting": "Pythium ultimum; rate 10 ppm in agar", "value": 4, "unit": "%"}, {"measurement": "inhibition at 25 ppm", "setting": "Pythium ultimum; rate 25 ppm in agar", "value": 4.5, "unit": "%"}, {"measurement": "ARMYWORM Day 3", "setting": "[4]; rating at 3 days", "value": "9 (100% kill)"}, {"measurement": "ARMYWORM Day 5", "setting": "[4]; rating at 5 days", "value": "9 (100% kill)"}]}
